Results as given in ChEMBL document CHEMBL1201862, “PubChem BioAssay data set” (2004).
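Compound exposure: 48 hours, 5 concentrations, 96-well plates. The concentration for 50% growth inhibition is given as GI50.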 Activity calls are given as the source filed them. Cut-off read from the data, not from the text of the source: active = GI50 up to about 1.1 µM and inactive = higher.

Experiments:
Experiment in all cases: growth of human tumour cells (NCI), 48 h
[1] = tested on: OVCAR-4
[2] = tested on: M14
[3] = tested on: KM-20L2
[4] = tested on: HL-60
[5] = tested on: SF-295
[6] = tested on: SNB-78
[7] = tested on: UO-31
[8] = tested on: OVCAR-8
[9] = tested on: OVCAR-5
[10] = tested on: A549
[11] = tested on: SW-620
[12] = tested on: DMS-114
[13] = tested on: DLD-1
[14] = tested on: NCI-H460
[15] = tested on: KM12
[16] = tested on: A498
[17] = tested on: HOP-62
[18] = tested on: HT-29
[19] = tested on: TK-10
[20] = tested on: MOLT-4
[21] = tested on: HCT-15
[22] = tested on: LXFL 529
[23] = tested on: CCRF-CEM
[24] = tested on: 786-0
[25] = tested on: SF-268
[26] = tested on: UACC-62
[27] = tested on: SK-MEL-5
[28] = tested on: NCI-H23
[29] = tested on: RPMI-8226
[30] = tested on: SK-MEL-28
[31] = tested on: DMS-273
[32] = tested on: NCI-H522
[33] = tested on: SNB-75
[34] = tested on: UACC-257
[35] = tested on: CAKI-1
[36] = tested on: SN12C
[37] = tested on: HOP-18
[38] = tested on: HOP-92
[39] = tested on: IGROV-1
[40] = tested on: HCT-116
[41] = tested on: ACHN
[42] = tested on: OVCAR-3
[43] = tested on: SR
[44] = tested on: HCC 2998
[45] = tested on: SF-539
[46] = tested on: U-251
[47] = tested on: M19-MEL
[48] = tested on: RXF 631
[49] = tested on: SNB-19
[50] = tested on: XF498
[51] = tested on: SK-OV-3
[52] = tested on: EKVX
[53] = tested on: LOX IMVI
[54] = tested on: RXF 393
[55] = tested on: NCI-H226
[56] = tested on: Malme-3M
[57] = tested on: SK-MEL-2
[58] = tested on: K562
[59] = tested on: COLO 205
[60] = tested on: MCF7
[61] = tested on: DU-145
[62] = tested on: BT-549
[63] = tested on: NCI/ADR-RES
[64] = tested on: Hs-578T
[65] = tested on: MDA-MB-435
[66] = tested on: PC-3
[67] = tested on: MDA-N
[68] = tested on: MDA-MB-231
[69] = tested on: T47D

C/C(=N/NS(=O)(=O)c1ccc(C)cc1)c1cccc[n+]1[O-]
GI50 [1]: > 100 µM (inactive) | GI50 [2]: > 100 µM (inactive) | GI50 [3]: > 100 µM (inactive) | GI50 [4]: > 100 µM (inactive) | GI50 [5]: > 100 µM (inactive) | GI50 [6]: > 100 µM (inactive) | GI50 [7]: > 100 µM (inactive) | GI50 [8]: > 100 µM (inactive) | GI50 [9]: > 100 µM (inactive) | GI50 [10]: > 100 µM (inactive) | GI50 [11]: > 100 µM (inactive) | GI50 [12]: > 100 µM (inactive) | GI50 [13]: > 100 µM (inactive) | GI50 [14]: > 100 µM (inactive) | GI50 [15]: > 100 µM (inactive) | GI50 [16]: > 100 µM (inactive) | GI50 [17]: > 100 µM (inactive) | GI50 [18]: > 100 µM (inactive) | GI50 [19]: > 100 µM (inactive) | GI50 [20]: > 100 µM (inactive) | GI50 [21]: > 100 µM | GI50 [22]: > 100 µM (inactive) | GI50 [23]: > 100 µM (inactive) | GI50 [24]: > 100 µM (inactive) | GI50 [25]: > 100 µM (inactive) | GI50 [26]: > 100 µM (inactive) | GI50 [27]: > 100 µM (inactive) | GI50 [28]: > 100 µM (inactive) | GI50 [29]: > 100 µM (inactive) | GI50 [30]: > 100 µM (inactive) | GI50 [31]: > 100 µM (inactive) | GI50 [32]: > 100 µM (inactive) | GI50 [33]: > 100 µM (inactive) | GI50 [34]: > 100 µM (inactive) | GI50 [35]: > 100 µM (inactive) | GI50 [36]: > 100 µM (inactive) | GI50 [37]: > 100 µM (inactive) | GI50 [38]: > 100 µM (inactive) | GI50 [39]: > 100 µM (inactive) | GI50 [40]: > 100 µM (inactive) | GI50 [41]: > 100 µM (inactive) | GI50 [42]: > 100 µM (inactive) | GI50 [43]: > 100 µM (inactive) | GI50 [44]: > 100 µM (inactive) | GI50 [45]: > 100 µM (inactive) | GI50 [46]: > 100 µM (inactive) | GI50 [47]: > 100 µM (inactive) | GI50 [48]: > 100 µM (inactive) | GI50 [49]: > 100 µM (inactive) | GI50 [50]: > 100 µM (inactive) | GI50 [51]: > 100 µM (inactive) | GI50 [52]: > 100 µM (inactive)

O=C(N/N=C/c1ccccc1O)N/N=C/c1ccccc1O
GI50 [1]: > 100 µM (inactive) | GI50 [2]: > 100 µM (inactive) | GI50 [3]: > 100 µM (inactive) | GI50 [4]: > 100 µM (inactive) | GI50 [5]: > 100 µM (inactive) | GI50 [6]: > 100 µM (inactive) | GI50 [7]: > 100 µM (inactive) | GI50 [8]: > 100 µM (inactive) | GI50 [9]: > 100 µM (inactive) | GI50 [10]: > 100 µM (inactive) | GI50 [11]: > 100 µM (inactive) | GI50 [12]: > 100 µM (inactive) | GI50 [13]: > 100 µM (inactive) | GI50 [14]: > 100 µM (inactive) | GI50 [16]: > 100 µM (inactive) | GI50 [17]: > 100 µM (inactive) | GI50 [18]: > 100 µM (inactive) | GI50 [19]: > 100 µM (inactive) | GI50 [20]: > 100 µM (inactive) | GI50 [21]: > 100 µM | GI50 [53]: > 100 µM (inactive) | GI50 [22]: > 100 µM (inactive) | GI50 [23]: > 100 µM (inactive) | GI50 [24]: > 100 µM (inactive) | GI50 [54]: > 100 µM (inactive) | GI50 [25]: > 100 µM (inactive) | GI50 [26]: > 100 µM (inactive) | GI50 [28]: > 100 µM (inactive) | GI50 [29]: > 100 µM (inactive) | GI50 [55]: > 100 µM (inactive) | GI50 [30]: > 100 µM (inactive) | GI50 [56]: > 100 µM (inactive) | GI50 [31]: > 100 µM (inactive) | GI50 [32]: > 100 µM (inactive) | GI50 [33]: > 100 µM (inactive) | GI50 [57]: > 100 µM (inactive) | GI50 [34]: > 100 µM (inactive) | GI50 [36]: > 100 µM (inactive) | GI50 [37]: > 100 µM (inactive) | GI50 [38]: > 100 µM (inactive) | GI50 [58]: > 100 µM (inactive) | GI50 [39]: > 100 µM (inactive) | GI50 [40]: > 100 µM (inactive) | GI50 [41]: > 100 µM (inactive) | GI50 [42]: > 100 µM (inactive) | GI50 [44]: > 100 µM (inactive) | GI50 [45]: > 100 µM (inactive) | GI50 [46]: > 100 µM (inactive) | GI50 [59]: > 100 µM (inactive) | GI50 [47]: > 100 µM (inactive) | GI50 [48]: > 100 µM (inactive) | GI50 [49]: > 100 µM (inactive) | GI50 [50]: > 100 µM (inactive) | GI50 [51]: > 100 µM (inactive) | GI50 [52]: > 100 µM (inactive)

Cc1cc(N(CCC#N)CCC#N)ccc1/C=C(\NC(=O)/C=C/c1ccccc1)C(=O)Nc1ccc(Cl)cc1
GI50 [1]: 30.5 µM (inactive) | GI50 [2]: 9.16 µM (inactive) | GI50 [4]: 5.6 µM (inactive) | GI50 [5]: 4.86 µM (inactive) | GI50 [6]: > 100 µM (inactive) | GI50 [7]: 11 µM (inactive) | GI50 [8]: > 100 µM (inactive) | GI50 [9]: 54.6 µM (inactive) | GI50 [10]: > 36.5 µM (inactive) | GI50 [11]: 12.3 µM (inactive) | GI50 [12]: 1.62 µM (inactive) | GI50 [13]: 5.58 µM (inactive) | GI50 [60]: 27 µM (inactive) | GI50 [14]: 52.4 µM (inactive) | GI50 [15]: 3.74 µM (inactive) | GI50 [16]: > 100 µM (inactive) | GI50 [61]: > 100 µM (inactive) | GI50 [18]: > 14.3 µM (inactive) | GI50 [19]: > 100 µM (inactive) | GI50 [62]: > 100 µM (inactive) | GI50 [20]: 38.1 µM (inactive) | GI50 [21]: 11.7 µM | GI50 [53]: 1.14 µM (inactive) | GI50 [22]: 0.0991 µM (active) | GI50 [23]: 2.44 µM (inactive) | GI50 [24]: > 100 µM (inactive) | GI50 [54]: > 68.9 µM (inactive) | GI50 [63]: > 100 µM (inactive) | GI50 [25]: > 100 µM (inactive) | GI50 [26]: 0.577 µM (active) | GI50 [64]: > 100 µM (inactive) | GI50 [27]: 0.179 µM (active) | GI50 [28]: > 63.1 µM (inactive) | GI50 [29]: 10 µM (inactive) | GI50 [55]: > 69 µM (inactive) | GI50 [30]: > 100 µM (inactive) | GI50 [56]: 14.2 µM (inactive) | GI50 [31]: 0.982 µM (active) | GI50 [32]: > 26.2 µM (inactive) | GI50 [33]: > 52.4 µM (inactive) | GI50 [57]: > 59.6 µM (inactive) | GI50 [34]: > 46 µM (inactive) | GI50 [35]: > 28.3 µM (inactive) | GI50 [65]: 1.94 µM (inactive) | GI50 [36]: > 75.7 µM (inactive) | GI50 [37]: > 100 µM (inactive) | GI50 [38]: > 100 µM (inactive) | GI50 [66]: 0.586 µM (active) | GI50 [58]: 0.364 µM (active) | GI50 [39]: 7.62 µM (inactive) | GI50 [40]: 5.41 µM (inactive) | GI50 [67]: 5.01 µM (inactive) | GI50 [41]: 1.83 µM (inactive) | GI50 [42]: 50.8 µM (inactive) | GI50 [68]: > 100 µM (inactive) | GI50 [69]: > 100 µM (inactive) | GI50 [44]: 4.33 µM (inactive) | GI50 [45]: 6.81 µM (inactive) | GI50 [46]: > 7.53 µM (inactive) | GI50 [59]: 1.07 µM (active) | GI50 [47]: 0.944 µM (active) | GI50 [48]: > 100 µM (inactive) | GI50 [49]: > 100 µM (inactive) | GI50 [50]: > 100 µM (inactive) | GI50 [51]: > 100 µM (inactive) | GI50 [52]: > 80.2 µM (inactive)
